Experiment: Inhibition Assay: To determine the thrombin inhibition of the substances listed above, a biochemical test system is constructed in which the conversion of a thrombin substrate is used for determining the enzymatic activity of human thrombin. Here, thrombin cleaves aminomethylcoumarin, which is measured fluorescently, from the peptic substrate. The determinations are carried out in microtitre plates.Substances to be tested are dissolved in various concentrations in dimethyl sulphoxide and incubated for 15 min with human thrombin (0.06 nmol/l dissolved in 50 mmol/l of Tris buffer [C,C,C-tris(hydroxymethyl)aminomethane], 100 mmol/l of sodium chloride, 0.1% BSA [bovine serum albumin], pH 7.4) at 22° C. The substrate (5 umol/l Boc-Asp(OBzl)-Pro-Arg-AMC from Bachem) is then added. After 30 min of incubation, the sample is excited at a wavelength of 360 nm and the emission is measured at 460 nm. The measured emissions of the test batches with test substance are compared to the control batches without test substance (only dimethyl sulphoxide instead of test substance in dimethyl sulphoxide) and the IC50 values are calculated from the concentration/activity relationships.

IC50: 130 nM
SMILES: COc1cc(C(=O)N2CC(C)(CCO)OC[C@H]2C)cc2nc(N[C@H](CF)c3cccc(Cl)c3)oc12 (stereo partly specified)
